Data on seven molecules can be found in patent publication US20180273528A1 (LES LABORATOIRES SERVIER, priority 2015, published 2018).

In one experiment the target is T1, DYRK1B (Homo sapiens, UniProt Q9Y463).
T1 construct: full-length human kinases from Carna Biosciences; purchased Carna Biosciences 04-131
Nature of the experiment: Kinase TR-FRET assay, DYRK1B. The class given is biochemical. The note with it: full-length human kinase, 10 μM ATP. A digest of the protocol:
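Compounds tested at 0.1 nM to 30 μM in reaction buffer; reaction stopped with 10 mM EDTA. Phosphorylated MBP detected with 1 nM Europium-labelled anti-phospho-Thr232 antibody by TR-FRET.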

Experiment [1] concerns the target T2, His-TEV-DYRK1A Kinase domain (aa127-485) (Homo sapiens, UniProt Q13627).
T2 construct: His-TEV-DYRK1A Kinase domain (aa127-485); His tag (N); TEV protease cleavage site (N)
Nature of the experiment: Kinase ADP assay (ADP Hunter), DYRK1A kinase domain. Type of experiment: biochemical. The note with it: 20 μM ATP. A digest of the protocol: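 Readout is ADP Hunter fluorescence at 590 nm, developed 20 min at 30 °C after the kinase step. That step ran 10 min at 30 °C in Hepes pH 7.4 (10 mM MgCl2, 1 mM EGTA, 0.02% Tween20) containing 20 μM ATP, 40 μM peptide and 20 nM enzyme plus compound.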

The target in experiment [2] is T3, DYRK1A (Homo sapiens, UniProt Q13627). Put plainly: Cellular DYRK1 autophosphorylation assay in U2-OS cells. Particulars: U2-OS cells transfected with HA-tagged human DYRK1A, 5 hours exposure; read-out: IC50 (μM) P-Ser520-Dyrk1A -Cell assay. Also noted: full-length, wild-type human DYRK1A (NM_001396) with an HA tag; expressed in transfected cells; host or cells: human U2-OS osteosarcoma cells, transient transfection of a pcDNA3.1 plasmid. Type of experiment: cell-based. A digest of the protocol: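 IC50 derived from dose-response curves of phospho-Ser520-DYRK1A (blots normalised to total DYRK1A), quantified by either immunoblotting with chemiluminescence or Mesoscale electrochemiluminescent ELISA. Compounds applied to U2-OS cells across several concentrations for 5 hours.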

For experiment [3], the target named is T3, DYRK1A. Put plainly: Pharmacodynamic assay in RS4;11 tumor xenografts for inhibition of DYRK1A autophosphorylation. Type of experiment: in vivo. Also noted: tumors were excised and proteins were extracted in tissue lysis buffer; from tissue; host or cells: RS4;11 human leukemia xenograft tumors grown in female SCID mice. Particulars: mouse, single oral administration, 2 h, RS4;11 tumors in SCID mice, read-out: phospho-Ser520-DYRK1A (% control at 2 h). How it is done:
For pharmacodynamics studies of inhibition of DYRK1A autophosphorylation, female SCID mice were injected subcutaneously with RS4; 11 human acute lymphoblastic leukemia cells. When tumors reached a size of 200-300 mm^3, mice were randomized into homogeneous groups of 3 and given a single oral administration of the compounds of the invention at doses of up to 100 mg/kg. […] The relative levels of phospho-Ser520-DYRK1A were assayed using western blotting. For this, lysates were diluted into Laemmli sample buffer (Bio-Rad) containing 5% v/v β-mercaptoethanol, heated for 5 min at 95° C., and resolved on Tris-glycine gels or NuPage Bis-Tris gels (Novex; Invitrogen). Biotinylated molecular weight standards (Cell Signaling Technology) were included in all gels. Proteins were transferred to nitrocellulose membranes (Hybond, ECL; Amersham), which were blocked in Tris-buffered saline/0.1% tween 20 (TBST) containing 5% milk, and probed at 4° C. overnight with anti-phospho-Ser520-DYRK1A antibody (Eurogentec SE6974-75; 0.23 μg/ml in 5% BSA) or anti DYRK1A antibody (Abnova H00001859; 0.5 μg/ml in 5% milk). Peroxidase-conjugated secondary antibodies were diluted into 5% milk and applied to membranes for 1 h at 20° C. Chemiluminescence detection was performed using the ECL plus western blotting detection kit (Amersham) and was recorded on ECL plus hyperfilm (Amersham). Blots were scanned using the Bio-Rad GS-800 calibrated densitometer and quantitative analysis of western blots was performed using TotalLab software (Amersham). The percentage inhibition of phospho-Ser520-DYRK1A as compared to the control tumors was calculated using the ratio between phospho-Ser520-DYRK1A and total DYRK1A signals at each dose.

T1 sequence (Q9Y463 whole entry): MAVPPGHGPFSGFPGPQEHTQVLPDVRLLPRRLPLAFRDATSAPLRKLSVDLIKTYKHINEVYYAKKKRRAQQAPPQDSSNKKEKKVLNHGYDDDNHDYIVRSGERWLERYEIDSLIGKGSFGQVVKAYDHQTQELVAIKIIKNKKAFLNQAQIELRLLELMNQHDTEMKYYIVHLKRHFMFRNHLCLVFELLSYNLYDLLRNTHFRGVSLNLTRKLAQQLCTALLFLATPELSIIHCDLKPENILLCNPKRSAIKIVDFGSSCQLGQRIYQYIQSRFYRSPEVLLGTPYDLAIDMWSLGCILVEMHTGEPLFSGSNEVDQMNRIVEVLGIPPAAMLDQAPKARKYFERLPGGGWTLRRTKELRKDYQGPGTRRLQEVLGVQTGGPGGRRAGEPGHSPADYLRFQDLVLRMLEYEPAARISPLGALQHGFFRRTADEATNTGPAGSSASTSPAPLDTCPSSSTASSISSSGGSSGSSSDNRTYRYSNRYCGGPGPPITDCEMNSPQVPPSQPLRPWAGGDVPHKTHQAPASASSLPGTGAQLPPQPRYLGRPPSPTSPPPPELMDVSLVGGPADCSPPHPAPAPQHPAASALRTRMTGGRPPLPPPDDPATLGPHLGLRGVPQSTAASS

For `Cc1nc2ccc(-c3cc(N)nc(N)c3)nc2n1C[C@@H](C)Oc1ccccc1` (single isomer, unassigned) [Example 106], the IC50 worked out at 0.006 µM against DYRK1B, 0.012 µM in experiment [1] and 0.073 µM on DYRK1A [2]. The response vs control in vivo at 9 mg/kg at DYRK1A [3] (dose 9 mg/kg) was determined as 46%.

As to `Cc1nc2ccc(-c3cc(N)nc(N)c3)nc2n1C1CC1` [Example 9, 4-(3-cyclopropyl-2-methyl-3H-imidazo[4,5-b]pyridin-5-yl)pyridine-2,6-diamine], the figures for the IC50 (on DYRK1B; in experiment [1]; on DYRK1A [2]) were 0.006 µM, 0.007 µM and 0.09 µM, respectively. The response vs control in vivo at 3 mg/kg at DYRK1A [3] was determined as 44%.

As to `Cc1nc2ccc(-c3cc(N)nc(N)c3)nc2n1Cc1ccoc1` [Example 42, 4-[3-(furan-3-ylmethyl)-2-methyl-3H-imidazo[4,5-b]pyridin-5-yl]pyridine-2,6-diamine], the IC50 on DYRK1B is 0.01 µM; in experiment [1] it was 0.008 µM; at DYRK1A [2], 0.045 µM. The response vs control in vivo at 3 mg/kg at DYRK1A [3] was 35%.

Consider `Cc1nc2ccc(-c3cc(N)nc(N)c3)nc2n1CCCC(F)(F)F` [Example 71, 4-[2-methyl-3-(4,4,4-trifluorobutyl)-3H-imidazo[4,5-b]pyridin-5-yl]pyridine-2,6-diamine], for which the IC50 against DYRK1B was 0.006 µM; in experiment [1], 0.006 µM; at DYRK1A [2], 0.047 µM. For the same molecule, the response vs control in vivo at 3 mg/kg on DYRK1A [3] was 33%.

Regarding `Cc1nc2ccc(-c3cc(N)nc(N)c3)nc2n1C1CC(F)(F)C1` [Example 101, 4-[3-(3,3-difluorocyclobutyl)-2-methyl-3H-imidazo[4,5-b]pyridin-5-yl]pyridine-2,6-diamine], the IC50 against DYRK1B amounted to 0.007 µM; in experiment [1], 0.006 µM; at DYRK1A [2] it was 0.006 µM. Further, the response vs control in vivo at 3 mg/kg at DYRK1A [3] was 25%.

As to `Cc1nc2ccc(-c3cc(N)nc(N)c3)nc2n1C1CC(F)C1` (stereo not shown) [Example 103, 4-[3-(3-fluorocyclobutyl)-2-methyl-3H-imidazo[4,5-b]pyridin-5-yl]pyridine-2,6-diamine], the IC50 is 0.005 µM against DYRK1B, 0.006 µM in experiment [1] and 0.014 µM at DYRK1A [2]. Further, on DYRK1A [3], the response vs control in vivo at 3 mg/kg amounted to 41%.

In the case of `CCn1c(C)nc2ccc(-c3cc(N)nc(N)c3)nc21` [Example 154, 4-(3-ethyl-2-methyl-3H-imidazo[4,5-b]pyridin-5-yl)pyridine-2,6-diamine], the IC50 against DYRK1B came to 0.002 µM; in experiment [1], 0.007 µM; on DYRK1A [2], 0.02 µM. The response vs control in vivo at 3 mg/kg on DYRK1A [3] is 28%.
